Laboratory results as given in patent US20250051277A1, “DELIVERY OF THERAPEUTIC ALKALOID COMPOUNDS” (Sensorium Therapeutics, Inc., priority 2021, published 2025).
Like-named read-outs stand apart in the source and are kept apart here.

Tests used:
[1] = Plasma Stability Assay of Example A3, human plasma; conditions: 5 μM, 37° C., % of prodrug compound remaining
[2] = Plasma Stability Assay of Example A3, mouse plasma; conditions: 5 μM, 37° C., % of prodrug compound remaining
[3] = 5 μM
[4] = type: physicochemical; conditions: SGF with pepsin, pH 1.5, 37° C., 0.5 mM
[5] = type: physicochemical; conditions: DI water, 25° C., 0.5 mM

## COc1ccc([C@@]23CCC(OC(=O)c4ccc(C(F)(F)F)cc4)=C[C@@H]2N(C)CC3)cc1OC [Compound 310]
[1]; 0 min
  Human Plasma Prodrug (%): 100.0%
[1]; 15 min
  Human Plasma Prodrug (%): 89.9%
[1]; 30 min
  Human Plasma Prodrug (%): 84.5%
[1]; 60 min
  Human Plasma Prodrug (%): 77.3%
[1]; 120 min
  Human Plasma Prodrug (%): 63.4%
[1]; 240 min
  Human Plasma Prodrug (%): 35.1%
[2]; 0 min
  Mouse Plasma Prodrug (%): 100.0%
[2]; 15 min
  Mouse Plasma Prodrug (%): 0.4%
[2]; 30 min
  Mouse Plasma Prodrug (%): 0.1%
[2]; 60 min
  Mouse Plasma Prodrug (%): 0.1%
[2]; 120 min
  Mouse Plasma Prodrug (%): 0.1%
[2]; 240 min
  Mouse Plasma Prodrug (%): 0.1%

## COc1ccc([C@@]23CCC(OC(=O)c4ccc(F)cc4)=C[C@@H]2N(C)CC3)cc1OC [Compound 353, (3aS,7aS)-3a-(3,4-dimethoxyphenyl)-1-methyl-2,3,3a,4,5,7a-hexahydro-1H-indol-6-yl4-fluorobenzoate]
[1]; 0 min
  Human Plasma Prodrug (%): 100%
[1]; 15 min
  Human Plasma Prodrug (%): 95.4%
[1]; 30 min
  Human Plasma Prodrug (%): 90.1%
[1]; 60 min
  Human Plasma Prodrug (%): 79.7%
[1]; 120 min
  Human Plasma Prodrug (%): 55.3%
[1]; 240 min
  Human Plasma Prodrug (%): 39.6%
[3]; 0 min
  Mouse Plasma Compound 001 (%): 47.7%
[3]; 15 min
  Mouse Plasma Compound 001 (%): 55%
[3]; 30 min
  Mouse Plasma Compound 001 (%): 51.6%
[3]; 60 min
  Mouse Plasma Compound 001 (%): 50.6%
[3]; 120 min
  Mouse Plasma Compound 001 (%): 46.4%
[3]; 240 min
  Mouse Plasma Compound 001 (%): 29.3%
[2]; 0 min
  Mouse Plasma Prodrug (%): 100%
[2]; 15 min
  Mouse Plasma Prodrug (%): 0%
[2]; 30 min
  Mouse Plasma Prodrug (%): 0%
[2]; 60 min
  Mouse Plasma Prodrug (%): 0%
[2]; 120 min
  Mouse Plasma Prodrug (%): 0%
[2]; 240 min
  Mouse Plasma Prodrug (%): 0%

## COc1ccc([C@@]23CCC(OC(=O)c4cccc(N(C)C)c4)=C[C@@H]2N(C)CC3)cc1OC [Compound 307, [(3aS,7aS)-3a-(3,4-dimethoxyphenyl)-1-methyl-3,4,5,7a-tetrahydro-2H-indol-6-yl]3-(dimethylamino)benzoate]
[1]; 0 min
  Human Plasma Prodrug (%): 100.0%
[1]; 15 min
  Human Plasma Prodrug (%): 88.5%
[1]; 30 min
  Human Plasma Prodrug (%): 87.6%
[1]; 60 min
  Human Plasma Prodrug (%): 83.0%
[1]; 120 min
  Human Plasma Prodrug (%): 71.1%
[1]; 240 min
  Human Plasma Prodrug (%): 57.5%
[3]; 15 min
  Mouse Plasma Compound 001 (%): 73.4%
[3]; 30 min
  Mouse Plasma Compound 001 (%): 81.1%
[3]; 60 min
  Mouse Plasma Compound 001 (%): 86.3%
[3]; 120 min
  Mouse Plasma Compound 001 (%): 79.9%
[3]; 240 min
  Mouse Plasma Compound 001 (%): 79.0%
[2]; 0 min
  Mouse Plasma Prodrug (%): 100.0%
[2]; 15 min
  Mouse Plasma Prodrug (%): 18.1%
[2]; 30 min
  Mouse Plasma Prodrug (%): 3.8%
[2]; 60 min
  Mouse Plasma Prodrug (%): 0.1%
[2]; 120 min
  Mouse Plasma Prodrug (%): 0.0%
[2]; 240 min
  Mouse Plasma Prodrug (%): 0.0%

## COc1ccc([C@@]23CCC(OC(=O)C(c4ccccc4)c4ccccc4)=C[C@@H]2N(C)CC3)cc1OC [Compound 306, [(3aS,7aS)-3a-(3,4-dimethoxyphenyl)-1-methyl-3,4,5,7a-tetrahydro-2H-indol-6-yl]2,2-diphenylacetate]
[4]; time 1 min
  Condition 1 Conversion (%): 0%
[4]; time 5 min
  Condition 1 Conversion (%): 0%
[4]; time 30 min
  Condition 1 Conversion (%): 0%
[4]; time 1 h
  Condition 1 Conversion (%): 0%
[4]; time 4 h
  Condition 1 Conversion (%): 0%
[4]; time 24 h
  Condition 1 Conversion (%): 0%
[5]; time 1 min
  Condition 2 Conversion (%): 0%
[5]; time 5 min
  Condition 2 Conversion (%): 0%
[5]; time 30 min
  Condition 2 Conversion (%): 0%
[5]; time 1 h
  Condition 2 Conversion (%): 0%
[5]; time 4 h
  Condition 2 Conversion (%): 0%
[5]; time 24 h
  Condition 2 Conversion (%): 0%
[1]; 0 min
  Human Plasma Prodrug (%): 100.0%
[1]; 15 min
  Human Plasma Prodrug (%): 89.5%
[1]; 30 min
  Human Plasma Prodrug (%): 75.2%
[1]; 60 min
  Human Plasma Prodrug (%): 53.7%
[1]; 120 min
  Human Plasma Prodrug (%): 32.4%
[1]; 240 min
  Human Plasma Prodrug (%): 13.8%
[2]; 0 min
  Mouse Plasma Prodrug (%): 100.0%
[2]; 15 min
  Mouse Plasma Prodrug (%): 6.2%
[2]; 60 min
  Mouse Plasma Prodrug (%): 1.6%
[2]; 120 min
  Mouse Plasma Prodrug (%): 0.4%
[2]; 240 min
  Mouse Plasma Prodrug (%): 0.1%

## COc1ccc([C@@]23CCC(OC(=O)c4cccc(C(C)(C)C)c4)=C[C@@H]2N(C)CC3)cc1OC [Compound 375, (3aS,7aS)-3a-(3,4-dimethoxyphenyl)-1-methyl-2,3,3a,4,5,7a-hexahydro-1H-indol-6-yl3-(tert-butyl)benzoate]
[1]; 0 min
  Human Plasma Prodrug (%): 100%
[1]; 15 min
  Human Plasma Prodrug (%): >99%
[1]; 30 min
  Human Plasma Prodrug (%): >99%
[1]; 60 min
  Human Plasma Prodrug (%): 97%
[1]; 120 min
  Human Plasma Prodrug (%): 57%
[1]; 240 min
  Human Plasma Prodrug (%): 26%
[3]; 0 min
  Mouse Plasma Compound 001 (%): 41.82%
[3]; 15 min
  Mouse Plasma Compound 001 (%): 45.54%
[3]; 30 min
  Mouse Plasma Compound 001 (%): 45.99%
[3]; 60 min
  Mouse Plasma Compound 001 (%): 41.28%
[3]; 120 min
  Mouse Plasma Compound 001 (%): 42.28%
[3]; 240 min
  Mouse Plasma Compound 001 (%): 29.74%
[2]; 0 min
  Mouse Plasma Prodrug (%): 100%
[2]; 15 min
  Mouse Plasma Prodrug (%): 11%
[2]; 30 min
  Mouse Plasma Prodrug (%): 2%
[2]; 60 min
  Mouse Plasma Prodrug (%): 0%
[2]; 120 min
  Mouse Plasma Prodrug (%): 0%
[2]; 240 min
  Mouse Plasma Prodrug (%): 0%

## COc1ccc([C@@]23CCC(OC(=O)C4CC4)=C[C@@H]2N(C)CC3)cc1OC [Compound 312, [(3aS,7aS)-3a-(3,4-dimethoxyphenyl)-1-methyl-3,4,5,7a-tetrahydro-2H-indol-6-yl]cyclopropanecarboxylate]
[4]; time 1 min
  Condition 1 Conversion (%): 0%
[4]; time 5 min
  Condition 1 Conversion (%): 0%
[4]; time 30 min
  Condition 1 Conversion (%): 0%
[4]; time 1 h
  Condition 1 Conversion (%): 0%
[4]; time 4 h
  Condition 1 Conversion (%): 0%
[4]; time 24 h
  Condition 1 Conversion (%): 0%
[5]; time 1 min
  Condition 2 Conversion (%): 0%
[5]; time 5 min
  Condition 2 Conversion (%): 0%
[5]; time 30 min
  Condition 2 Conversion (%): 0%
[5]; time 1 h
  Condition 2 Conversion (%): 0%
[5]; time 4 h
  Condition 2 Conversion (%): 0%
[5]; time 24 h
  Condition 2 Conversion (%): 0%
[1]; 0 min
  Human Plasma Prodrug (%): 100.0%
[1]; 15 min
  Human Plasma Prodrug (%): 8.1%
[1]; 30 min
  Human Plasma Prodrug (%): 6.2%
[1]; 60 min
  Human Plasma Prodrug (%): 20.9%
[1]; 120 min
  Human Plasma Prodrug (%): 10.5%
[1]; 240 min
  Human Plasma Prodrug (%): 13.8%
[3]; 15 min
  Mouse Plasma Compound 001 (%): 66.1%
[3]; 30 min
  Mouse Plasma Compound 001 (%): 70.8%
[3]; 60 min
  Mouse Plasma Compound 001 (%): 64.4%
[3]; 120 min
  Mouse Plasma Compound 001 (%): 61.7%
[3]; 240 min
  Mouse Plasma Compound 001 (%): 61.5%
[2]; 0 min
  Mouse Plasma Prodrug (%): 100.0%
[2]; 15 min
  Mouse Plasma Prodrug (%): 3.5%
[2]; 30 min
  Mouse Plasma Prodrug (%): 1.6%
[2]; 60 min
  Mouse Plasma Prodrug (%): 2.2%
[2]; 120 min
  Mouse Plasma Prodrug (%): 2.8%
[2]; 240 min
  Mouse Plasma Prodrug (%): 0.8%

## COc1ccc([C@@]23CCC(OC(=O)c4ccc(C#N)cc4)=C[C@@H]2N(C)CC3)cc1OC [Compound 354, (3aS,7aS)-3a-(3,4-dimethoxyphenyl)-1-methyl-2,3,3a,4,5,7a-hexahydro-1H-indol-6-yl4-cyanobenzoate]
[1]; 0 min
  Human Plasma Prodrug (%): 100%
[1]; 15 min
  Human Plasma Prodrug (%): 93%
[1]; 30 min
  Human Plasma Prodrug (%): 72%
[1]; 60 min
  Human Plasma Prodrug (%): 42%
[1]; 120 min
  Human Plasma Prodrug (%): 13%
[1]; 240 min
  Human Plasma Prodrug (%): 1%
[3]; 0 min
  Mouse Plasma Compound 001 (%): 33.27%
[3]; 15 min
  Mouse Plasma Compound 001 (%): 32.79%
[3]; 30 min
  Mouse Plasma Compound 001 (%): 32.69%
[3]; 60 min
  Mouse Plasma Compound 001 (%): 29.45%
[3]; 120 min
  Mouse Plasma Compound 001 (%): 27.14%
[3]; 240 min
  Mouse Plasma Compound 001 (%): 20.12%
[2]; 0 min
  Mouse Plasma Prodrug (%): 100%
[2]; 15 min
  Mouse Plasma Prodrug (%): 5%
[2]; 30 min
  Mouse Plasma Prodrug (%): 7%
[2]; 60 min
  Mouse Plasma Prodrug (%): 5%
[2]; 120 min
  Mouse Plasma Prodrug (%): 4%
[2]; 240 min
  Mouse Plasma Prodrug (%): 0%
